One data set has as its system LAB. The data set can be described thus: In vitro RGE fermentation with LAB. Type of data set: in vitro ADME. Particulars: RGE incubated with LAB (1 billion CFU) for 7 days at 37 °C; result in words.
For data set [1] the following is noted: cited from earlier work.

As for `CC(C)=CCC[C@](C)(O)[C@H]1CC[C@]2(C)[C@@H]1[C@H](O)C[C@@H]1[C@@]3(C)CC[C@H](O[C@@H]4O[C@H](CO)[C@@H](O)[C@H](O)[C@H]4O)C(C)(C)[C@@H]3CC[C@]12C` [GRh2, ginsenoside Rh2], the “Relative abundance / metabolic activity following fermentation of RGE with LAB” value in the data set with LAB is “significantly increased”. The “Oral BA” value in data set [1] is given as 5%.

These data come from PMC9775652, “Concomitant Administration of Red Ginseng Extract with Lactic Acid Bacteria Increases the Plasma Concentration of Deglycosylated Ginsenosides in Healthy Human Subjects” (Biomolecules, 2022).
